{"source": "ChEMBL document CHEMBL3351946", "about": "“Design and synthesis of potent antitumor water-soluble phenyl N-mustard-benzenealkylamide conjugates via a bioisostere approach” (Eur J Med Chem, 2014)", "key": {"[1]": {"test": "Cytotoxicity against human PC3 cells assessed as growth inhibition after 72 hrs by Alamar Blue assay", "assay_type": "functional, cell-based", "details": "PC-3, 72 h"}, "[2]": {"test": "Cytotoxicity against human H460 cells assessed as growth inhibition after 72 hrs by Alamar Blue assay", "assay_type": "functional, cell-based", "details": "NCI-H460, 72 h"}, "[3]": {"test": "Cytotoxicity against human DLD1 cells assessed as growth inhibition after 72 hrs by Alamar Blue assay", "assay_type": "functional, cell-based", "details": "DLD-1, 72 h"}, "[4]": {"test": "Antitumor activity against human HCT116 cells xenografted in nude mouse assessed as tumor growth inhibition at 30 mg/kg,iv qd administered for 6 days measured on day 15 relative to control", "assay_type": "functional, HCT-116"}, "[5]": {"test": "Antitumor activity against human HCT116 cells xenografted in nude mouse assessed as tumor growth inhibition at 30 mg/kg,iv qd administered for 6 days measured on day 31 relative to control", "assay_type": "functional", "details": "HCT-116, iv, read-out: TGI"}, "[6]": {"test": "Antitumor activity against human PC3 cells xenografted in nude mouse assessed as tumor growth inhibition at 30 mg/kg,iv qd administered for 6 days measured on day 38 relative to control", "assay_type": "functional", "details": "PC-3, iv, read-out: TGI"}, "[7]": {"test": "Antitumor activity against human PC3 cells xenografted in nude mouse assessed as tumor growth inhibition at 50 mg/kg,iv administered every 2 days for 5 doses measured on day 38 relative to control", "assay_type": "functional", "details": "PC-3, iv, read-out: TGI"}, "Mus musculus [8]": {"tested_on": "Mus musculus", "test": "Toxicity in nude mouse xenografted with human HCT116 cells assessed as body weight loss at 30 mg/kg,iv qd administered for 6 days measured on day 13 relative to control", "assay_type": "organism-based, HCT-116", "set-up": "dose 30 mg/kg", "details": "in vivo, 144 h"}, "Mus musculus [9]": {"tested_on": "Mus musculus", "test": "Toxicity in nude mouse xenografted with human H3347 cells assessed as body weight loss at 30 mg/kg,iv qd administered for 6 days measured on day 13 relative to control", "assay_type": "organism-based", "set-up": "dose 30 mg/kg", "details": "in vivo, 144 h"}, "Mus musculus [10]": {"tested_on": "Mus musculus", "test": "Toxicity in nude mouse xenografted with human PC3 cells assessed as change in body weight at 40 mg/kg,iv administered every 2 days for 5 doses measured on day 38 relative to control", "assay_type": "organism-based, PC-3", "set-up": "dose 40 mg/kg", "details": "in vivo, 48 h"}, "Mus musculus [11]": {"tested_on": "Mus musculus", "test": "Toxicity in nude mouse xenografted with human PC3 cells assessed as change in body weight at 50 mg/kg,iv administered every 2 days for 5 doses measured on day 38 relative to control", "assay_type": "organism-based, PC-3", "set-up": "dose 50 mg/kg", "details": "in vivo, 48 h"}, "Mus musculus [12]": {"tested_on": "Mus musculus", "test": "Toxicity in nude mouse xenografted with human H460 cells assessed as body weight loss at 30 mg/kg,iv qd administered for 6 days measured on day 37 relative to control", "assay_type": "organism-based", "set-up": "dose 30 mg/kg", "details": "in vivo, 144 h"}, "HCT-116 [13]": {"tested_on": "HCT-116", "test": "Antitumor activity against human HCT116 cells xenografted in nude mouse assessed as survival at 30 mg/kg,iv qd administered for 6 days", "assay_type": "functional, organism-based", "set-up": "dose 30 mg/kg"}, "PC-3 [14]": {"tested_on": "PC-3", "test": "Antitumor activity against human PC3 cells xenografted in nude mouse assessed as survival at 40 mg/kg,iv administered every 2 days for 5 doses", "assay_type": "functional, organism-based", "set-up": "dose 40 mg/kg"}, "PC-3 [15]": {"tested_on": "PC-3", "test": "Antitumor activity against human PC3 cells xenografted in nude mouse assessed as survival at 50 mg/kg,iv administered every 2 days for 5 doses", "assay_type": "functional, organism-based", "set-up": "dose 50 mg/kg"}, "NCI-H460": {"tested_on": "NCI-H460", "test": "Antitumor activity against human H460 cells xenografted in nude mouse assessed as survival at 30 mg/kg,iv qd administered for 6 days", "assay_type": "functional, organism-based", "set-up": "dose 30 mg/kg"}, "[16]": {"test": "Antitumor activity against human HCT116 cells xenografted in nude mouse assessed as tumor growth inhibition at 75 mg/kg,[…] ip administered every 7 days for 2 doses relative to control", "assay_type": "functional", "details": "HCT-116, ip, 168 h, route intraperitoneal, read-out: TGI"}, "[17]": {"test": "Cell cycle arrest in human HCT116 cells assessed as accumulation at G1 phase at 1 uM after 24 hrs by FACS flow cytometric analysis (reference value: 48.75 +/- 3.69%)", "assay_type": "functional, cell-based", "details": "HCT-116"}, "[18]": {"test": "Cell cycle arrest in human HCT116 cells assessed as accumulation at S phase at 1 uM after 24 hrs by FACS flow cytometric analysis (reference value: 18.71 +/- 2.25%)", "assay_type": "functional, cell-based", "details": "HCT-116"}, "[19]": {"test": "Cell cycle arrest in human HCT116 cells assessed as accumulation at G1 phase at 2 uM after 24 hrs by FACS flow cytometric analysis (reference value: 48.75 +/- 3.69%)", "assay_type": "functional, cell-based", "details": "HCT-116"}, "[20]": {"test": "Cell cycle arrest in human HCT116 cells assessed as accumulation at G2/M phase at 2 uM after 24 hrs by FACS flow cytometric analysis (reference value: 31.55 +/- 4.63%)", "assay_type": "functional, cell-based", "details": "HCT-116"}, "[21]": {"test": "Cell cycle arrest in human HCT116 cells assessed as accumulation at G1 phase at 4 uM after 24 hrs by FACS flow cytometric analysis (reference value: 48.75 +/- 3.69%)", "assay_type": "functional, cell-based", "details": "HCT-116"}, "[22]": {"test": "Cell cycle arrest in human HCT116 cells assessed as accumulation at sub-G1 phase at 1 uM after 48 hrs by FACS flow cytometric analysis (reference value: 1.65 +/- 0.06%)", "assay_type": "functional, cell-based", "details": "HCT-116"}, "[23]": {"test": "Cell cycle arrest in human HCT116 cells assessed as accumulation at sub-G1 phase at 2 uM after 48 hrs by FACS flow cytometric analysis (reference value: 1.65 +/- 0.06%)", "assay_type": "functional, cell-based", "details": "HCT-116"}, "[24]": {"test": "Cell cycle arrest in human HCT116 cells assessed as accumulation at G2/M phase at 2 uM after 48 hrs by FACS flow cytometric analysis (reference value: 23.95 +/- 1.87%)", "assay_type": "functional, cell-based", "details": "HCT-116"}, "[25]": {"test": "Cell cycle arrest in human HCT116 cells assessed as accumulation at G1 phase at 4 uM after 48 hrs by FACS flow cytometric analysis (reference value: 62.16 +/- 5.94%)", "assay_type": "functional, cell-based", "details": "HCT-116"}, "[26]": {"test": "Cell cycle arrest in human HCT116 cells assessed as accumulation at S phase at 4 uM after 48 hrs by FACS flow cytometric analysis (reference value: 12.11 +/- 4.28%)", "assay_type": "functional, cell-based", "details": "HCT-116"}, "[27]": {"test": "Cell cycle arrest in human HCT116 cells assessed as accumulation at S phase at 2 uM after 72 hrs by FACS flow cytometric analysis (reference value: 7.49 +/- 0.95%)", "assay_type": "functional, cell-based", "details": "HCT-116"}, "[28]": {"test": "Cell cycle arrest in human HCT116 cells assessed as accumulation at G2/M phase at 2 uM after 72 hrs by FACS flow cytometric analysis (reference value: 12.82 +/- 2.19%)", "assay_type": "functional, cell-based", "details": "HCT-116"}, "[29]": {"test": "Cell cycle arrest in human HCT116 cells assessed as accumulation at S phase at 4 uM after 72 hrs by FACS flow cytometric analysis (reference value: 7.49 +/- 0.95%)", "assay_type": "functional, cell-based", "details": "HCT-116"}, "HCT-116 [30]": {"tested_on": "HCT-116", "test": "Induction of apoptosis in human HCT116 cells assessed as PARP cleavage at 1 to 4 uM after 24 hrs by Western blot analysis", "assay_type": "functional, cell-based"}, "Mus musculus [31]": {"tested_on": "Mus musculus", "test": "Induction of apoptosis in HCT116 cells xenografted in nude mouse at 30 mg/kg, iv qd administered for 6 days measured 24 hrs post last dose by TUNEL assay", "assay_type": "functional, organism-based", "set-up": "dose 30 mg/kg", "details": "HCT-116"}, "Mus musculus [32]": {"tested_on": "Mus musculus", "test": "Toxicity in iv dosed CD-1 (ICR) mouse assessed as swelling of cheek measured for 14 days", "assay_type": "organism-based", "details": "in vivo, 336 h"}, "Mus musculus [33]": {"tested_on": "Mus musculus", "test": "Toxicity in iv dosed CD-1 (ICR) mouse assessed as swelling of mouth measured for 14 days", "assay_type": "organism-based", "details": "in vivo, 336 h"}, "Mus musculus [34]": {"tested_on": "Mus musculus", "test": "Toxicity in iv dosed CD-1 (ICR) mouse assessed as hunch posture measured for 14 days", "assay_type": "organism-based", "details": "in vivo, 336 h"}, "Mus musculus [35]": {"tested_on": "Mus musculus", "test": "Toxicity in iv dosed CD-1 (ICR) mouse assessed as dehydration measured for 14 days", "assay_type": "organism-based", "details": "in vivo, 336 h"}, "[36]": {"test": "Toxicity in iv dosed CD-1 (ICR) mouse measured for 14 days", "assay_type": "organism-based", "details": "in vivo"}}, "note": "The source made the active and inactive calls. No cut-off for these calls is given here."}
{"smiles": "CCN(CC)CC(=O)Nc1ccc(NC(=O)Nc2ccc(N(CCCl)CCCl)cc2)cc1", "values": [{"measurement": "IC50", "setting": "[1]", "value": 3.57, "unit": "µM"}, {"measurement": "IC50", "setting": "[2]", "value": 930, "unit": "nM"}, {"measurement": "IC50", "setting": "[3]", "value": 3.85, "unit": "µM"}, {"measurement": "%max", "setting": "[4]", "value": 91, "unit": "%"}, {"measurement": "inhibition in vivo at 30 mg/kg", "setting": "[5]", "value": 84, "unit": "%"}, {"measurement": "inhibition in vivo at 30 mg/kg", "setting": "[6]", "value": 16, "unit": "%"}, {"measurement": "inhibition in vivo at 50 mg/kg", "setting": "[7]", "value": 62, "unit": "%"}, {"measurement": "body weight change relative to control", "setting": "Mus musculus [8]", "value": -5, "unit": "%"}, {"measurement": "Activity", "setting": "Mus musculus [9]", "value": 10, "unit": "%"}, {"measurement": "Activity", "setting": "Mus musculus [10]", "value": -12, "unit": "%"}, {"measurement": "Activity", "setting": "Mus musculus [11]", "value": -8, "unit": "%"}, {"measurement": "Activity", "setting": "Mus musculus [12]", "value": -5, "unit": "%"}, {"measurement": "Activity", "setting": "HCT-116 [13]", "value": "Active"}, {"measurement": "Activity", "setting": "PC-3 [14]", "value": "Active"}, {"measurement": "Activity", "setting": "PC-3 [15]", "value": "Active"}, {"measurement": "Activity", "setting": "NCI-H460", "value": "Active"}, {"measurement": "inhibition in vivo at 75 mg/kg", "setting": "[16]", "value": 54, "unit": "%"}, {"measurement": "Activity", "setting": "[17]", "value": 17.3, "unit": "%"}, {"measurement": "Activity", "setting": "[18]", "value": 18.7, "unit": "%"}, {"measurement": "Activity", "setting": "[19]", "value": 11.8, "unit": "%"}, {"measurement": "Activity", "setting": "[20]", "value": 64.3, "unit": "%"}, {"measurement": "Activity", "setting": "[21]", "value": 12.8, "unit": "%"}, {"measurement": "Activity", "setting": "[22]", "value": 9.86, "unit": "%"}, {"measurement": "Activity", "setting": "[23]", "value": 8.48, "unit": "%"}, {"measurement": "Activity", "setting": "[24]", "value": 28.2, "unit": "%"}, {"measurement": "Activity", "setting": "[25]", "value": 19, "unit": "%"}, {"measurement": "Activity", "setting": "[26]", "value": 16.6, "unit": "%"}, {"measurement": "Activity", "setting": "[27]", "value": 12.1, "unit": "%"}, {"measurement": "Activity", "setting": "[28]", "value": 29.2, "unit": "%"}, {"measurement": "Activity", "setting": "[29]", "value": 19.8, "unit": "%"}, {"measurement": "Activity", "setting": "HCT-116 [30]", "value": "Active"}, {"measurement": "Activity", "setting": "Mus musculus [31]", "value": "Active"}, {"measurement": "Activity", "setting": "Mus musculus [32]", "value": "Dose-dependent effect"}, {"measurement": "Activity", "setting": "Mus musculus [33]", "value": "Dose-dependent effect"}, {"measurement": "Activity", "setting": "Mus musculus [34]", "value": "Dose-dependent effect"}, {"measurement": "Activity", "setting": "Mus musculus [35]", "value": "Dose-dependent effect"}, {"measurement": "LD50 at 336 h", "setting": "[36]", "value": 115, "unit": "mg/kg"}]}
